The values that follow are results of earlier work, collected in patent US8888736B2, “High shear application in medical therapy” (H R D Corporation, priority 2010, dated 2014).

SMILES strings stand for the structures. Values after ≈ are worked out from the molar mass of the structure shown. Where two headings read alike, the source gives them in different places.

The conditions of data set [1]: believed to average around.

On to `CCCl` [chloroethane], for which the solubility (water at 20° C.) is 0.0078 mol/L (≈ 503 µg/mL).

For the molecule `C1CC1` [cyclopropane], the solubility (in water at 21° C.) is given as 537 ppm. `C=COC=C` [divinyl ether]: the solubility (water at 37° C.) was 0.0749 mol/L (≈ 5250 µg/mL).

`CCCl` [ethylchloride]: the solubility (in water at 21° C.) was 0.678 % by weight. `C=C` [ethylene]: the solubility (water at 20° C.) is 0.015 g/100 ml. As to `S` [hydrogen sulfide], the “toxic level in the body” value in data set [1] is recorded as 300-350 ppm. As to `ClC=C(Cl)Cl` [trichloroethylene], the solubility (water at 20° C.) was 0.1 g/100 ml.
